The results in this text go back to paper PMC11206988, “Study on the Effect of Pharmaceutical Excipient PEG400 on the Pharmacokinetics of Baicalin in Cells Based on MRP2, MRP3, and BCRP Efflux Transporters” (Pharmaceutics, 2024).

For data set [1], the system named is HepG2 cells. Nature of the data set: Pharmacokinetic study of baicalin in HepG2 cells (intracellular concentrations by UPLC-MS/MS). To be noted: for AUC0–t increase compared with the control group: HepG2 cells. The data set is classed as in vitro ADME, human. The procedure:
(§1) The samples were quantified by UPLC-MS/MS, which consisted of a Dionex Ultimate 3000 UPLC system (Thermo Fisher Scientific, Waltham, MA, USA) and a triple quadrupole tandem mass spectrometer (Thermo Fisher Scientific, Waltham, MA, USA). The mass spectrometry was performed using an ESI ion source and in positive ion mode. The chromatograms are shown in Figure S1 of the Supplementary Materials. The samples were analyzed by a Waters XBridge BEH C18 column (2.1 × 100 mm). Mobile phase A consists of acetonitrile, while mobile phase B consists of water containing 0.1% formic acid. The elution program was as follows: B was initially 90%, 0 to 9 min B decreased from 90% to 27%, and 9.1 min to 12 min increased from 27% to 90% B. The flow rate of the mobile phase was 0.3 mL/min, the temperature of the automatic injector was 5 °C, and the injection volume was 10 μL. The m/z for BG and B6G was 447 → 271, for baicalein m/z 271 → 123, and for genistein (IS) m/z 271 → 153. Other mass spectrometry parameters included sheath gas (Arb) pressure, 20 psi, and auxiliary gas (Arb) pressure, 2 psi; source voltage, 4.8 KV, and capillary voltage, 2.5 KV; and ion-transfer-tube temperature, 375 °C, and atomization temperature, 275 °C.
(§2) HepG2 cells were cultured at a density of 1×10^5 cells/mL in 12-well plates for 24 h to facilitate the conduct of cellular pharmacokinetic experiments. The old medium was aspirated and discarded, the wells were rinsed twice with PBS, and 1 mL of 100 μM baicalin and baicalin + PEG400 (0.25%, 0.5%, and 1%) was added into 12-well plates to initiate the timer. The culture was terminated after 0.25 h, 0.5 h, 1 h, 2 h, 4 h, 6 h, 8 h, 10 h, 12 h, and 24 h, respectively. Upon reaching the designated time for administration, the cell culture medium was removed, and the wells were washed with 1 mL of cold PBS solution. Subsequently, 240 μL of ultra-pure water were added to each well, and the sample was stored at −80 °C until analysis. The sample was subjected to sonication in an ice bath for 10 min in order to lyse the cells, thereby enabling the determination of the accumulated drug concentration within the cells. Subsequently, 20 μL of the cell lysate was collected, and the protein concentration was quantified using a BCA kit for normalization.
(§3) After repeated freeze-thaw lysis, 100 μL of cell samples were taken, and 300 μL of 0.2% formic acid acetonitrile (containing 200 ng/mL genistein) were added to the vortex for 10 min to precipitate proteins and then centrifuged at 14,000 r/min for 10 min. Then the supernatant was blown dry under nitrogen at 40 °C and then reconstituted with 200 μL of methanol and centrifuged at 14,000 rpm for 10 min. The supernatant was subjected to UPLC-MS/MS analysis.

Assay in data set [2]: as above
To be noted: human, intracellular; for AUC(0-t) at 100 μM / Cmax at 100 μM / half-life at 100 μM: HepG2 cells. The data set is classed as in vitro ADME, human. The procedure:
as §1, §2, §3

Where [3] appears, read: HepG2 cells given 100 μM baicalin + H PEG400 (1%).
Setting [4] is: HepG2 cells given 100 μM baicalin + L PEG400 (0.25%).
[5] abbreviates: HepG2 cells given 100 μM baicalin + M PEG400 (0.5%).
The mark [6] stands for this setting: HepG2 cells given 100 μM baicalin alone (group BG, control).

In the case of `O=c1cc(-c2ccccc2)oc2cc(O)c(O)c(O)c12` [B, baicalein], the “AUC0–t increase compared with the control group” value in data set [1] (baicalin + high PEG400 (1%) vs baicalin alone) is given as 1.27 fold; in data set [1] (baicalin + low PEG400 (0.25%) vs baicalin alone) it was 1.26 fold; in data set [1] (baicalin + medium PEG400 (0.5%) vs baicalin alone), 1.23 fold. Further, the AUC(0-t) at 100 μM in data set [2] (setting [3]) worked out at 5640 ± 70 ng·h/mL; in data set [2] (setting [4]), 5610 ± 90 ng·h/mL; in data set [2] (setting [5]) it was 5480 ± 118 ng·h/mL; in data set [2] (HepG2 cells given 100 μM baicalin alone (group BG, control), 0.25-24 h), 4450 ± 60 ng·h/mL. Moreover, the Cmax at 100 μM was found to be 510 ± 10 ng/mL in data set [2] (setting [3]), 550 ± 70 ng/mL in data set [2] (setting [4]), 530 ± 60 ng/mL in data set [2] (setting [5]) and 350 ± 120 ng/mL in data set [2] (setting [6]). Also, the half-life at 100 μM is 6.43 ± 1.85 h in data set [2] (setting [3]), 3.73 ± 0.54 h in data set [2] (setting [4]), 9.4 ± 8.73 h in data set [2] (setting [5]) and 17.6 ± 7.99 h in data set [2] (setting [6]). For the same compound, the time of peak concentration (Tmax) at 100 μM in data set [2] (setting [6]) was determined as 6 h.

Consider `O=C(O)[C@H]1O[C@@H](Oc2c(O)cc3oc(-c4ccccc4)cc(=O)c3c2O)[C@H](O)[C@@H](O)[C@@H]1O` [B6G, Baicalein-6-O-β-D-glucuronide], for which, in data set [1] (human), the Tmax amounted to 6.00 h and the t1/2 turned out to be 5.19 ± 2.37 h.

Usually AUC(0-t) stands for the area under the concentration-time curve up to a stated or last time point. In general, Cmax refers to the maximum level reached in the sampled fluid or tissue. What is called half-life is how long it takes for the measured level to halve. For orientation: Tmax means the time from dosing to the highest level.
